Data taken from ChEMBL document CHEMBL3885861, “Open TG-GATES”.

Species: Rattus norvegicus
Test: Open TG-GATES - Regimen: Single
Format: toxicity, organism-based, Sprague-Dawley
Design: regimen Single, gender Male, age 6 weeks
Settings: in vivo, po, 75 mg/kg, route gavage, dose level High; for APTT / Bas / Eos / Fbg / Hb / Ht / Lym / MCH / MCHC / MCV / Mono / Neu / PT / Plat / RBC / Ret / WBC: tissue Blood; for KIDNEY_L / KIDNEY_R / KIDNEY_TOTAL: tissue Kidney; for LIVER: tissue Liver; for A/G / ALP / ALT / AST / BUN / CRE / Ca / Cl / DBIL / GLC / IP / K / LDH / Na / PL / RALB / TBIL / TC / TG / TP / gamma-GTP: tissue Plasma

Structure (SMILES): NC1=NC(=O)C(c2ccccc2)O1 (stereo unspecified) [PEMOLINE]
- TERMINAL_BW (9 h): 209.6 g
- APTT (9 h): 17.2 s
- Bas (9 h): 0%
- Eos (9 h): 0.6%
- Fbg (9 h): 330.2 mg/dL
- Hb (9 h): 13.7 g/dL
- Ht (9 h): 40.1%
- Lym (9 h): 71.6%
- MCH (9 h): 22.2 pg
- MCHC (9 h): 34.2%
- MCV (9 h): 65 fL
- Mono (9 h): 2.2%
- Neu (9 h): 25%
- PT (9 h): 13.1 s
- Plat (9 h): 113 x10_4/uL
- RBC (9 h): 617.8 x10_4/ul
- Ret (9 h): 9.2%
- WBC (9 h): 80.9 x10_2/uL
- KIDNEY_L (9 h): 0.9 g
- KIDNEY_R (9 h): 0.9 g
- KIDNEY_TOTAL (9 h): 1.8 g
- LIVER (9 h): 7.3 g
- A/G (9 h): 1
- ALP (9 h): 1405.6 IU/L
- ALT (9 h): 34.4 IU/L
- AST (9 h): 89 IU/L
- BUN (9 h): 9 mg/dL
- CRE (9 h): 0.2 mg/dL
- Ca (9 h): 10.3 mg/dL
- Cl (9 h): 107.8 meq/L
- DBIL (9 h): 0.01 mg/dL
- GLC (9 h): 190.4 mg/dL
- IP (9 h): 10.4 mg/dL
- K (9 h): 3.5 meq/L
- LDH (9 h): 82 IU/L
- Na (9 h): 141.2 meq/L
- PL (9 h): 122.2 mg/dL
- RALB (9 h): 2.9 g/dL
- TBIL (9 h): 0.044 mg/dL
- TC (9 h): 75.6 mg/dL
- TG (9 h): 9.4 mg/dL
- TP (9 h): 5.7 g/dL
- gamma-GTP (9 h): 1.2 IU/L
- TERMINAL_BW (24 h): 200.9 g
- APTT (24 h): 15.7 s
- Bas (24 h): 0%
- Eos (24 h): 1%
- Fbg (24 h): 324.8 mg/dL
- Hb (24 h): 13.3 g/dL
- Ht (24 h): 38.1%
- Lym (24 h): 78.8%
- MCH (24 h): 21.9 pg
- MCHC (24 h): 34.8%
- MCV (24 h): 62.9 fL
- Mono (24 h): 2.2%
- Neu (24 h): 17.6%
- PT (24 h): 13.1 s
- Plat (24 h): 112.1 x10_4/uL
- RBC (24 h): 606.6 x10_4/ul
- Ret (24 h): 8.5%
- WBC (24 h): 84.2 x10_2/uL
- KIDNEY_L (24 h): 0.9 g
- KIDNEY_R (24 h): 0.9 g
- KIDNEY_TOTAL (24 h): 1.9 g
- LIVER (24 h): 8.6 g
- A/G (24 h): 1
- ALP (24 h): 1471 IU/L
- ALT (24 h): 40.8 IU/L
- AST (24 h): 92.6 IU/L
- BUN (24 h): 14 mg/dL
- CRE (24 h): 0.2 mg/dL
- Ca (24 h): 10.6 mg/dL
- Cl (24 h): 104.8 meq/L
- DBIL (24 h): 0.014 mg/dL
- GLC (24 h): 177.6 mg/dL
- IP (24 h): 8.6 mg/dL
- K (24 h): 4.1 meq/L
- LDH (24 h): 66.2 IU/L
- Na (24 h): 141.4 meq/L
- PL (24 h): 127.6 mg/dL
- RALB (24 h): 2.7 g/dL
- TBIL (24 h): 0.038 mg/dL
- TC (24 h): 80.4 mg/dL
- TG (24 h): 38.2 mg/dL
- TP (24 h): 5.4 g/dL
- gamma-GTP (24 h): 1 IU/L
